# Test results taken from US20240116898A1, “NOVEL GLUTAMINYL CYCLASE INHIBITORS AND THE USE THEREOF IN TREATMENT OF VARIOUS DISEASES” (LTD "VALENTA-INTELLEKT", priority 2017, published 2024).
# Tests used:
# [1] = system: specific pain reaction by chemical irritation of the peritoneum in Balb/c mice; assay: Abdominal constriction test (acetic acid) in mice; type: in vivo, mouse
# Experimental: The model of the specific pain reaction by the method of chemical stimulation of peritoneum (“abdominal constriction” test) was carried out according to the standard procedure. To conduct the “abdominal constriction” test, Balb/c mice were intraperitoneally administered with 1% acetic acid in a volume of 10 ml per kg of the animal body weight. […] A quantity of constrictions (convulsive twitching of the abdominal muscles accompanied with stretching hind quarters and arching) was evaluated 15 minutes after the administration of acetic acid.
# [2] = system: thermal pain irritation hot plate in Balb/c mice; conditions: mouse, in vivo
# Experimental: The model of thermal pain irritation “hot plate” was carried out according to the standard procedure [Barrot M. Tests and models of nociception and pain in rodents. […] After 1 hour after the administration of the preparation, the “hot plate” test was carried out. To conduct the “hot plate” test, the mice were placed on the hot plate, the temperature (+55±1° C.) of which is constant.
# The time of first manifestations of the pain response in mice (paw licking, jumping) was registered and the mean latent time of the threshold of pain sensitivity (TPS, sec) in each group was calculated.
# [3] = system: formaldehyde-induced pharyngitis in rats; assay: Rat model of non-infectious pharyngitis (Evans blue exudation); type: in vivo
# Experimental: The rats were anesthetized with sodium thiopentone (50 mg/kg, intraperitoneally) and a cannula with a RenaSil® silicone rubber tube (SIL 037, Braintree Scientific, Inc., Braintree, MA) was inserted into the external jugular vein using a heparinized saline solution (40 U/ml).
# The Evans Blue dye (Evans Blue, EB) (30 mg/kg) was administered to all the animals intravenously through a catheter; 10 minutes after the EB dye was administered, a 30% formalin solution was applied to the surface of the pharyngeal mucosa as follows: the tongue was slightly pulled out, the pharyngeal area was opened deep in the mouth with blunt forceps and gently, using a sterile cotton pad, the formation solution (50 μl) was applied for 5 seconds each time it is applied. In the intact group thephysiologicla solution was used.
# 60 minutes after the application of 30% formalin solution, the animals were euthanized by the exsanguination. The head of each rat was perfused with the heparinized saline solution (40 U/ml) to remove the intravascular EB dye.
# The degree of the inflammation was assessed by the exudation test of the Evans blue (EB) dye. […] The amount of dye in the fabric was calculated using the standard curve for the Evans blue dye, and was expressed in micrograms of the dye per gram of wet fabric weight (μg/g).
# The formaldehyde solution with a concentration of 30% was adminstered to the control group.
# [4] = system: carrageenan-induced rat paw edema; assay: Carrageenan-induced rat paw edema; type: in vivo; conditions: 8 mg/kg, 2 hours after carrageenan
# Experimental: Experiments were performed on male white nonlinear rats weighing 250-270 g.
# [5] = 0.3 mg/kg intragastric 1 hour before acetic acid
smiles,measurement,setting,value
"O=C(CCCCC(=O)NCCc1cnc[nH]1)NCCc1cnc[nH]1 [Compound VII, N,N′-bis[2-(1H-imidazol-4-yl)ethyl]adipamide]",Quantity of constrictions for 15 minutes,[1]; [5],17.6 ± 2.81
"O=C(NCCc1cnc[nH]1)C(=O)NCCc1cnc[nH]1 [Compound I, N,N′-bis[2-(1H-imidazol-4-yl)ethyl]oxalamide]",Duration of the pharmacological effect,[2],at least 24 hours
same,Decrease of the concentration of dye in the tissue compared to the control,[3]; 6 mg/kg,2.8 times
same,Decrease of the concentration of dye in the tissue compared to the control,[3]; 18 mg/kg,6.4 times
"O=C(c1ccccc1)c1ccc2n1CCC2C(=O)O (stereo not drawn) [Ketorol, reference compound]",Quantity of constrictions for 15 minutes,[1]; 15 mg/kg,23.60 ± 1.87
"CC(C)(CC(=O)NCCc1cnc[nH]1)CC(=O)NCCc1cnc[nH]1 [Compound IX, N,N′-bis[2-(1H-imidazol-4-yl)ethyl]-3,3-dimethylpentanediamide]",Quantity of constrictions for 15 minutes,[1]; [5],11.6 ± 3.5
"O=C(O)Cc1ccccc1Nc1c(Cl)cccc1Cl [Diclofenac, reference compound]",Inhibition of edema growth,[4],42%
same,Effect on pharyngitis inflammation (dye concentration),[3]; 8 mg/kg,no effect
same,The concentration of the dye in the tissue,[3]; 8 mg/kg intragastric 24 h and 1 h before formaldehyde,0.112 ± 0.031 µg/mg
